For this assay, the target named is T1, Human M4 (Homo sapiens, UniProt P08173).
T1 construct: expressed in transfected cells; host or cells: CHO-K1 (ATCC), stably expressing hM4 and Gqi5
T1 sequence (P08173 1-479): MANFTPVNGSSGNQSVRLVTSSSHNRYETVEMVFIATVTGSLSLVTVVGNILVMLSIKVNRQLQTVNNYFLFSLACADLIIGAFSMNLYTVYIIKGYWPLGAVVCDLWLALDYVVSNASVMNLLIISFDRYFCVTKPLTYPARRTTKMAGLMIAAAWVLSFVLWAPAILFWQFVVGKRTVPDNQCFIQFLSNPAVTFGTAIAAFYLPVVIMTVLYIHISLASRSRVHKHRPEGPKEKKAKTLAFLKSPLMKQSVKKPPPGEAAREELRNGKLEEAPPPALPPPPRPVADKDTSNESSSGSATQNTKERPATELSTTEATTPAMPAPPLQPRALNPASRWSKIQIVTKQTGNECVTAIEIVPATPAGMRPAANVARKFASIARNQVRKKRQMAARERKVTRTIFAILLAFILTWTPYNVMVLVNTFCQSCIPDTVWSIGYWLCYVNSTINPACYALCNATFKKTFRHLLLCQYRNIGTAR
As to the kind of experiment: mAChR M4 cell-based functional assay (calcium flux, potentiation of EC20 acetylcholine response) in hM4-Gqi5 CHO-K1 cells. The conditions noted are these: for Emax at 30 µM: % ACh maximum at 30 μM, human M4 CHO-K1 cells; for EC50: CHO-K1 cells transfected with human M4 and Gqi5, positive allosteric modulator activity, EC20 acetylcholine. As for the experimental part:
Human M4 cDNA, along with the chimeric G protein Gqi5, were transfected into Chinese hamster ovary (CHO-K1) cells purchased from the American Type Culture Collection using commercially available Lipofectamine 2000 transfection reagent (Dalby, B. et al., Methods (2004) 33(2), 95-103). hM4-Gqi5 cells were grown in Ham's F-12 medium containing 10% heat-inactivated fetal bovine serum (FBS), 20 mM HEPES, 50 μg/mL G418 sulfate (CAS #108321-42-2), and 500 μg/mL Hygromycin B. rM4-Gqi5 cells were grown in DMEM containing 10% heat-inactivated FBS, 20 mM HEPES, 400 μg/mL G418 sulfate, and 500 μg/mL Hygromycin B.
For high throughput measurement of agonist-evoked increases in intracellular calcium, CHO-K1 cells stably expressing muscarinic receptors were plated in growth medium lacking G418 sulfate and hygromycin at 15,000 cells/20 μL/well in Greiner 384-well black-walled, tissue culture (TC)-treated, clear-bottom plates (VWR). Cells were incubated overnight at 37° C. and 5% CO2. The next day, cells were washed using an ELX 405 (BioTek) with assay buffer; the final volume was then aspirated to 20 μL. Next, 20 μL of a 2.3 μM stock of Fluo-4/acetoxymethyl ester (Invitrogen, Carlsbad, CA), prepared as a 2.3 mM stock in DMSO and mixed in a 1:1 ratio with 10% (w/v) Pluronic F-127 and diluted in assay buffer, was added to the wells and the cell plates were incubated for 50 minutes at 37° C. and 5% CO2. Dye was removed by washing with the ELX 405 and the final volume was aspirated to 20 μL. Compound master plates were formatted in an 11 point concentration-response curve (CRC) format (1:3 dilutions) in 100% DMSO with a starting concentration of 10 mM using a BRAVO liquid handler (Agilent). Test compound CRCs were then transferred to daughter plates (240 nL) using the Echo acoustic plate reformatter (Labcyte, Sunnyvale, CA) and then diluted into assay buffer (40 μL) to a 2× stock using a Thermo Fisher Combi (Thermo Fisher Scientific, Waltham, MA).
Calcium flux was measured using the Functional Drug Screening System (FDSS) 6000 or 7000 (Hamamatsu Corporation, Tokyo, Japan) as an increase in the fluorescent static ratio. Compounds were applied to cells (20 μL, 2×) using the automated system of the FDSS at 2-4 seconds into the protocol and the data were collected at 1 Hz. […] Agonist activity was analyzed as a concentration-dependent increase in calcium mobilization upon compound addition. Positive allosteric modulator activity was analyzed as a concentration-dependent increase in the EC20 acetylcholine response. With the acetylcholine EC20 set as baseline, the test compound EC50 is determined as the concentration that produces an increase above baseline of 50% of the maximum increase in acetylcholine response elicted by the test compound. Antagonist activity was analyzed as a concentration-dependent decrease in the EC80 acetylcholine response. Concentration-response curves were generated using a four-parameter logistical equation in XLFit curve fitting software (IDBS, Bridgewater, NJ) for Excel (Microsoft, Redmond, WA) or Prism (GraphPad Software, Inc., San Diego, CA).
Compounds were synthesized as described above. Activity (EC50 and Emax) was determined in the mAChR M4 cell-based functional assay as described above and the data are shown in Table 5. The compound numbers correspond to the compound numbers used in Examples 1-13 and Tables 1, 2, and 3.
(A change in cytosolic calcium serves as a functional read-out for many receptors and channels.)

A word on the Emax: it is the size of the effect at its maximum, as opposed to the concentration needed. In general, EC50 refers to the midpoint of the concentration-response curve. With `Cc1noc2ncnc(N3CCc4ncc(N5CCCn6nccc65)cc4C3)c12` [Compound 45, 4-[3-(6,7-dihydro-5H-pyrazolo[1,5-a]pyrimidin-4-yl)-7,8-dihydro-5H-1,6-naphthyridin-6-yl]-3-methyl-isoxazolo[5,4-d]pyrimidine], the Emax at 30 µM is 93% and the EC50 worked out at 90 nM.
As to `Cc1noc2ncnc(N3CCc4ncc(-c5cnn(C6CC6)c5)cc4C3)c12` [Compound 46, 4-[3-(1-cyclopropylpyrazol-4-yl)-7,8-dihydro-5H-1,6-naphthyridin-6-yl]-3-methyl-isoxazolo[5,4-d]pyrimidine], the Emax at 30 µM worked out at 75% and the EC50 stood at 370 nM.
Regarding `Cc1coc2ncnc(N3CCc4ncc(N5CCOc6ncccc65)cc4C3)c12` [Compound 47, 1-[6-(5-methylfuro[2,3-d]pyrimidin-4-yl)-7,8-dihydro-5H-1,6-naphthyridin-3-yl]-2,3-dihydropyrido[2,3-b][1,4]oxazine], the Emax at 30 µM worked out at 125% and the EC50 came to 50 nM.
As to `Cc1ccc(-c2cnc3c(c2)CN(c2ncnc4occ(C)c24)CC3)cn1` [Compound 48, 5-methyl-4-[3-(6-methyl-3-pyridyl)-7,8-dihydro-5H-1,6-naphthyridin-6-yl]furo[2,3-d]pyrimidine], the Emax at 30 µM came to 102% and the EC50 was 90 nM.
Regarding `Cc1ncc(-c2cnc3c(c2)CN(c2ncnc4occ(C)c24)CC3)s1` [Compound 49, 5-methyl-4-[3-(2-methylthiazol-5-yl)-7,8-dihydro-5H-1,6-naphthyridin-6-yl]furo[2,3-d]pyrimidine], the Emax at 30 µM stood at 68% and the EC50 is 130 nM.
For `Cc1noc2ncnc(N3CCc4ncc(N5CCOc6ncccc65)cc4C3)c12` [Compound 50, 1-[6-(3-methylisoxazolo[5,4-d]pyrimidin-4-yl)-7,8-dihydro-5H-1,6-naphthyridin-3-yl]-2,3-dihydropyrido[2,3-b][1,4]oxazine] the same measures were 100% and 240 nM.
For `Cc1ccc(-c2cnc3c(c2)CN(c2ncnc4onc(C)c24)CC3)cn1` [Compound 51, 3-methyl-4-[3-(6-methyl-3-pyridyl)-7,8-dihydro-5H-1,6-naphthyridin-6-yl]isoxazolo[5,4-d]pyrimidine] the same measures were 89% and 510 nM.
Consider `Cc1ncc(-c2cnc3c(c2)CN(c2ncnc4onc(C)c24)CC3)s1` [Compound 52, 3-methyl-4-[3-(2-methylthiazol-5-yl)-7,8-dihydro-5H-1,6-naphthyridin-6-yl]isoxazolo[5,4-d]pyrimidine], for which the Emax at 30 µM came out at 92% and the EC50 stood at 550 nM.
`Cc1coc2ncnc(N3CCc4ncc(Cc5ccccc5F)cc4C3)c12` [Compound 53, 4-[3-[(2-fluorophenyl)methyl]-7,8-dihydro-5H-1,6-naphthyridin-6-yl]-5-methyl-furo[2,3-d]pyrimidine]: the Emax at 30 µM came out at 81% and the EC50 is 280 nM.
For `Cc1coc2ncnc(N3CCc4ncc(Cc5cccc(F)c5)cc4C3)c12` [Compound 54, 4-[3-[(3-fluorophenyl)methyl]-7,8-dihydro-5H-1,6-naphthyridin-6-yl]-5-methyl-furo[2,3-d]pyrimidine] the same measures were 78% and 500 nM.
As for `Cc1coc2ncnc(N3CCc4ncc(Nc5ccnn5C)cc4C3)c12` [Compound 55, 6-(5-methylfuro[2,3-d]pyrimidin-4-yl)-N-(2-methylpyrazol-3-yl)-7,8-dihydro-5H-1,6-naphthyridin-3-amine], the Emax at 30 µM was found to be 94% and the EC50 is 60 nM.
For `Cc1coc2ncnc(N3CCc4ncc(-c5ccnn5C)cc4C3)c12` [Compound 56, 5-methyl-4-[3-(2-methylpyrazol-3-yl)-7,8-dihydro-5H-1,6-naphthyridin-6-yl]furo[2,3-d]pyrimidine], in that order: 74% and 80 nM.
`FC(F)(F)c1cnc2c(c1)CN(c1nc(Cl)nc3c1CCC3)CC2` [Compound 57, 6-(2-chloro-6,7-dihydro-5H-cyclopenta[d]pyrimidin-4-yl)-3-(trifluoromethyl)-7,8-dihydro-5H-1,6-naphthyridine]: the Emax at 30 µM turned out to be 69% and the EC50 is 100 nM.
`FC(F)(F)c1cnc2c(c1)CN(c1nc(C3CC3)nc3c1CCC3)CC2` [Compound 58, 6-(2-cyclopropyl-6,7-dihydro-5H-cyclopenta[d]pyrimidin-4-yl)-3-(trifluoromethyl)-7,8-dihydro-5H-1,6-naphthyridine]: the Emax at 30 µM came out at 88% and the EC50 was 1480 nM.
For `Cc1nc2c(c(N3CCc4ncc(C(F)(F)F)cc4C3)n1)CCC2` [Compound 59, 6-(2-methyl-6,7-dihydro-5H-cyclopenta[d]pyrimidin-4-yl)-3-(trifluoromethyl)-7,8-dihydro-5H-1,6-naphthyridine], in that order: 87% and 1030 nM.
For `Cn1ncc2ncnc(N3CCc4ncc(C(F)(F)F)cc4C3)c21` [Compound 60, 6-(1-methylpyrazolo[4,3-d]pyrimidin-7-yl)-3-(trifluoromethyl)-7,8-dihydro-5H-1,6-naphthyridine] the same measures were 31% and 6060 nM.
Turning to `Cn1ccc2c(N3CCc4ncc(C(F)(F)F)cc4C3)ncnc21` [Compound 61, 6-(7-methylpyrrolo[2,3-d]pyrimidin-4-yl)-3-(trifluoromethyl)-7,8-dihydro-5H-1,6-naphthyridine], the Emax at 30 µM worked out at 80% and the EC50 turned out to be 830 nM.
On to `FC(F)(F)c1cnc2c(c1)CN(c1nc(Cl)nc3c1COC3)CC2` [Compound 62, 2-chloro-4-[3-(trifluoromethyl)-7,8-dihydro-5H-1,6-naphthyridin-6-yl]-5,7-dihydrofuro[3,4-d]pyrimidine], for which the Emax at 30 µM is 58% and the 50% effective concentration (EC50) is 3290 nM.
Take `Clc1nc2c(c(N3CCc4ncc(N5CCOc6ncccc65)cc4C3)n1)COC2` [Compound 63, 1-[6-(2-chloro-5,7-dihydrofuro[3,4-d]pyrimidin-4-yl)-7,8-dihydro-5H-1,6-naphthyridin-3-yl]-2,3-dihydropyrido[2,3-b][1,4]oxazine]: the Emax at 30 µM was 56% and the EC50 worked out at 370 nM.
Turning to `Clc1nc2c(c(N3CCc4ncc(N5CCCn6nccc65)cc4C3)n1)COC2` [Compound 64, 2-chloro-4-(3-(6,7-dihydropyrazolo[1,5-a]pyrimidin-4(5H)-yl)-7,8-dihydro-1,6-naphthyridin-6(5H)-yl)-5,7-dihydrofuro[3,4-d]pyrimidine], the Emax at 30 µM amounted to 62% and the EC50 was found to be 300 nM.
With `C[C@@H]1CN(c2cnc3c(c2)CN(c2nc(Cl)nc4c2COC4)CC3)CCO1` [Compound 65, (R)-2-chloro-4-(3-(2-methylmorpholino)-7,8-dihydro-1,6-naphthyridin-6(5H)-yl)-5,7-dihydrofuro[3,4-d]pyrimidine], the Emax at 30 µM was found to be 35% and the EC50 came to 3260 nM.

The values above are taken from patent US20250017935A1, “7,8-DIHYDRO-5H-1,6-NAPHTHYRIDINE DERIVATIVES AS POSITIVE ALLOSTERIC MODULATORS OF THE MUSCARINIC ACETYLCHOLINE RECEPTOR M4 FOR TREATING NEUROLOGICAL AND PSYCHIATRIC DISORDERS” (Vanderbilt University, priority 2021, published 2025).
